Key:
[1] = Therapeutic index, ratio of dose required to produce 10% increase in lung to terminal body weight ratio administered for 14 days to dose required to produce 50% lymphopenia in Sprague-Dawley rat; settings: in vivo, read-out: TI
[2] = Toxicity in Sprague-Dawley rat assessed as dose required to produce 10% increase in lung to terminal body weight ratio administered orally via gavage for 5 to 14 days measured 24 hrs post last dose; settings: in vivo, po
[3] = system: Rattus norvegicus; assay: Antiinflammatory activity in Sprague-Dawley rat assessed as dose required to produce 50% lymphopenia administered orally via gavage for 3 to 5 days measured 24 hrs post last dose; type: functional
[4] = molecular target: Sphingosine 1-phosphate receptor 1 (Homo sapiens, UniProt P21453); assay: Agonist activity at human S1P1 expressed in CRE-bla CHOK1 cells assessed as inhibition of forskolin-induced cAMP formation preincubated for 4 hrs followed by FRET-based beta-lactamase fluorescent substrate addition measured after 2 hrs; type: functional, cell-based, CHO-K1
Chain of Sphingosine 1-phosphate receptor 1 (P21453 whole entry): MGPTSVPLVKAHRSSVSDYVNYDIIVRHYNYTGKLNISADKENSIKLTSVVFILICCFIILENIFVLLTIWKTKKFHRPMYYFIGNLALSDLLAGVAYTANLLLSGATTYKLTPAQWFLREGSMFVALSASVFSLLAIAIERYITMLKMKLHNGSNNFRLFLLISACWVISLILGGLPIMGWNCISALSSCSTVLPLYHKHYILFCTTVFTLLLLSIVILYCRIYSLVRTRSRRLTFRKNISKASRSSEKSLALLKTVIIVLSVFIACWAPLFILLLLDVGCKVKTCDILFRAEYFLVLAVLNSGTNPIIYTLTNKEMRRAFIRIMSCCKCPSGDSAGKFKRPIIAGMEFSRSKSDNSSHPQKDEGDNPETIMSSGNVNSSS

[5] = system: Mus musculus; assay: Antiinflammatory activity in Influenza A virus (A/WSN/33) infected C57Bl/6 mouse model assessed as suppression of inflammatory cell infiltration into lungs at 0.5 mg/kg administered intratracheally 1 hr post viral infection measured after 48 hrs relative to control; type: functional; settings: C57Bl/6, inhaled or nasal
[6] = system: Mus musculus; assay: Antiinflammatory activity in C57BL6 mouse assessed as induction of lymphopenia by measuring CD4 or CD8-positive T cell levels at 1 mg/kg, po administered via gavage measured over 24 hrs by FACS analysis relative to control; type: functional
[7] = Oral bioavailability in Sprague-Dawley rat at 2 mg/kg administered via gavage by HPLC-LC/MS/MS method; type: ADME, organism-based; settings: in vivo

Row | Compound | Activity [2] [mg/kg] | Activity [3] [mg/kg] | other results
1 | CC(C)Oc1ccc(-c2nc(-c3cccc4c3CC[C@H]4N)no2)cc1C#N.Cl | 0.2 | 0.1 | selectivity ratio at 336 h [1]: 2
2 | CC(C)Oc1ccc(-c2nc(-c3cccc4c3CC[C@@H]4NS(=O)(=O)CCO)no2)cc1C#N | 5 | 0.5 | –
3 | CC(C)Oc1ccc(-c2nc(-c3cccc4c3CC[C@H]4NCC(=O)N3CCOCC3)no2)cc1C#N | – | – | EC50 [4]: 0.05 to 0.5 nM
4 | CC(C)Oc1ccc(-c2nc(-c3cccc4c3CC[C@H]4NCC(=O)N(C)C)no2)cc1C#N.Cl | 5.5 | 0.4 | –
5 | CC(C)Oc1ccc(-c2nc(-c3cccc4c3CC[C@@H]4NC(=O)N(C)C)no2)cc1C#N | – | – | EC50 [4]: 0.05 to 0.5 nM
6 | CC(C)Oc1ccc(-c2nc(-c3cccc4c3CC[C@H]4NC(=O)N3CC(O)C3)no2)cc1C#N | 21.3 | 0.9 | –
7 | CC(C)Oc1ccc(-c2nc(-c3cccc4c3CC[C@H]4NCCO)no2)cc1C#N | 2.8 | 0.15 | inhibition in vivo at 0.5 mg/kg [5]: 40%
8 | CC(C)Oc1ccc(-c2nc(-c3cccc4c3CC[C@@H]4NC(=O)N3CC(O)C3)no2)cc1C#N | 11.3 | 2 | –
9 | COCCS(=O)(=O)N[C@H]1CCc2c(-c3noc(-c4ccc(OC(C)C)c(C#N)c4)n3)cccc21 | 5 | 0.25 | –
10 | CC(C)Oc1ccc(-c2nc(-c3cccc4c3CC[C@H]4NC(=O)c3ccc(Br)cc3)no2)cc1C#N | – | – | EC50 [4]: > 5 nM
11 | CC(C)Oc1ccc(-c2nc(-c3cccc4c3CC[C@H]4NS(=O)(=O)CCO)no2)cc1C#N | 1.1 | 0.07 | –
12 | CC(C)Oc1ccc(-c2nc(-c3cccc4c3CC[C@@H]4NCC(=O)N(C)C)no2)cc1C#N | 0.3 | 0.3 | –
13 | CCOc1ccc(-c2nc(-c3cccc4c3CCC4NCCO)no2)cc1OCC (racemic) | – | – | AUEC [6]: 116%; bioavailability [7]: 21%
14 | COCCS(=O)(=O)N[C@@H]1CCc2c(-c3noc(-c4ccc(OC(C)C)c(C#N)c4)n3)cccc21 | 2.1 | 0.07 | –
15 | CC(C)Oc1ccc(-c2nc(-c3cccc4c3CC[C@@H]4N)no2)cc1C#N | 2 | 0.1 | –
16 | CC(C)Oc1ccc(-c2nc(-c3cccc4c3CC[C@@H]4NCCO)no2)cc1C#N [OZANIMOD] | 2.7 | 0.15 | –

Reference: ChEMBL document CHEMBL3879904, “Selective sphingosine 1 phosphate receptor modulators and methods of chiral synthesis” (2013)
